From patent US10104890B2, “Compositions and methods for controlling pesticide resistant pests” (Rothamsted Research Limited, priority 2011, dated 2018)

System: Myzus persicae clone 5191A
Assay type: in vivo
Details: for LC50 (lethal concentration to kill 50% of the population): LC50 of imidacloprid, alone or after 5 h pre-treatment with 0.25 μL of 1 g L−1 synergist, apterous aphids, topical, scored 72 h after treatment, probit analysis; for SF = synergism factor (LC50 unsynergised/LC50 synergised): with imidacloprid, 1 g L−1 synergist, 5 h pre-treatment, clone 5191A
Experimental: Aphids for bioassays were reared on Chinese cabbage leaves (Brassica rapa L. var. Pekinensis c.v Wong Bok) (Brassicaceae) in small plastic box-cages (Blackman boxes) (Stewart Plastics Ltd, Surrey, UK) maintained at 18±2° C. with a 16 h light: 8 h dark photoperiod. Each box contained two adult aphids placed on a leaf and left for 5 days to produce nymphs. After the 5th day the adults were removed and their esterase levels determined to ensure that no contamination or loss of esterase expression (reversion) among the different clones had occurred during the rearing process. After approximately 13-15 days adults were used for bioassays.
Clone 5191A was collected from tobacco in Greece in 2007, and established from a single parthenogenetic female.
Apterous aphids were transferred from Blackman boxes (section 2.1.1) to the abaxial surface of Chinese cabbage leaf discs (approximately 10 adults per leaf disc) held on 1% agar in plastic containers (4 cm in diameter, A.W. Gregory & Co Limited, Kent, UK). The upper edge of each container was coated with Fluon® (Whitford Plastics, Cheshire, UK) to prevent aphid escape from the leaf surface. Netted lids were added to ensure apterous aphids could not escape. After allowing 30 min for the aphids to settle, each was dosed with 0.25 μL of 1 g L^−1 synergist dissolved in acetone or acetone only using a Burkard microapplicator (Burkhard Scientific, Middx, UK). Synergist concentrations chosen conferred no significant mortality compared to the acetone control treatment in preliminary bioassays. Five hours later, aphids were further treated with 0.25 μL imidacloprid in acetone at a range of concentrations, at least 3 replicates per concentration per bioassay. Controls were treated with 0.25 μL of acetone or 1 g L^−1 synergist in acetone and after 5 h with a further 0.25 μL of acetone.
Treated aphids were kept at 18±2° C. and 16 h light: 8 h dark photoperiod and scored 72 h after treatment. Aphids incapable of co-ordinated movement (after gentle touching with a paint brush if necessary) were scored as dead. All bioassays were performed a minimum of three times.
Pooled raw data from at least three separate bioassays were analysed by probit analysis using the statistical programme PC Polo Plus (LeOra, Software, Berkeley, USA). Polo Plus programme calculated the concentrations required to kill 50% of the population (LC50), 95% confidence limits (CL95%), slopes with standard errors (SE), chi-square (χ2) and degrees of freedom (df). Natural response was also estimated when control mortality occurred.

Row | SMILES | LC50 (lethal concentration to kill 50% of the population) | SF = synergism factor (LC50 unsynergised/LC50 synergised)
1 | CCCCCCCCCCCCc1ccc2c(c1)OCO2 [EN 129] | 28.4 ppm | 3.18
2 | CC#CCOc1cc2c(cc1CCC)CCO2 [EN 16-17] | 7.11 ppm | 12.7
3 | CC#CCOCc1cc2c(cc1CCC)OCO2 [EN 126] | 0.31 ppm | 292
4 | CC#CCO[C@H](C)c1ccc(OC)c(OC)c1 [EN 25-10] | 4.88 ppm | 18.5
5 | CC#CCOc1cc2c(cc1CCC)OCO2 [EN 164] | 1.25 ppm | 72.4
6 | CC#CCOc1ccc2c(c1)OCO2 [EN 163] | 2.98 ppm | 30.3
7 | CCCCOCCOCCOCc1cc2c(cc1CCC)CCO2 [EN 16-5] | 12.2 ppm | 7.41
8 | O=[N+]([O-])NC1=NCCN1Cc1ccc(Cl)nc1 [imidacloprid] | 90.4 ppm | –
9 | CCCCOCCOCCOCc1cc2c(cc1CCC)OCO2 [PBO, piperonyl butoxide] | 6.22 ppm | 14.5
10 | CC#COCc1ccc2c(c1)CCO2 [EN 16-18] | 18.4 ppm | 4.91
11 | CCCCOCCOCCOCc1cc2c(cc1CCC)CCC2 [EN 14-5] | 41.5 ppm | 2.17
